≈ marks a conversion by molar mass, not a printed value.
Tests used:
E. coli D22 [1] = test: disc diffusion assay; assay type: cell-based; details: 0.15 μmol per 6 mm disc
E. coli BL21(DE3) [2] = test: disc diffusion assay; assay type: cell-based; details: 0.15 μmol per 6 mm disc
E. coli LpxC C63A = target: T1, E. coli LpxC C63A (Escherichia coli, UniProt P0A725, C63A); test: fluorescence-based E. coli LpxC C63A enzyme inhibition assay; assay type: biochemical; details: Ki E. coli LpxC C63A, from IC50 via Cheng–Prusoff
T1 construct: made in house; host or cells: E. coli BL21(DE3)
T1 sequence (P0A725 whole entry C63A): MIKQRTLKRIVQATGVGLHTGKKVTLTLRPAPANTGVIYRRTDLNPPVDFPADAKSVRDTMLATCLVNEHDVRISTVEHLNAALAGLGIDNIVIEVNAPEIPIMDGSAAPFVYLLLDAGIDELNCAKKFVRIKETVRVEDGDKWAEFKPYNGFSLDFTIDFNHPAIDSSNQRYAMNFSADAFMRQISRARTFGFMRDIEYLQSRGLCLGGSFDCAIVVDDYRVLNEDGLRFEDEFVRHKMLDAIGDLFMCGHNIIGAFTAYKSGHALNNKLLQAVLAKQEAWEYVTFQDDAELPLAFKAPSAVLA
In short: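 Purified E. coli LpxC C63A (15 nM) was incubated with 25 µM UDP-3-O-[(R)-3-hydroxymyristoyl]-GlcNAc in MES pH 6.0 buffer (2% DMSO) for 30 min at 37 °C. Compounds ranged from 20 nM to 20 µM. Product was derivatized with o-phthaldialdehyde/2-mercaptoethanol and read by fluorescence (ex 340/em 460), with IC50 converted to Ki via Cheng–Prusoff.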

E. coli D22 [3] = test: MIC, broth microdilution; assay type: cell-based; details: Escherichia coli, 20 h, 37 °C, LB
In short: (§1)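 LB broth microdilution, inoculum 5 × 10^5 cfu mL^–1, 5% DMSO, 2-fold compound series 64–0.016 μg mL^–1 final, incubated 20 h at 37 °C. MIC was the lowest concentration preventing visible growth, from at least three runs on separate days.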

E. coli BL21(DE3) [4] = test: MIC, broth microdilution; assay type: cell-based; details: 20 h, 37 °C, LB; for MIC: Escherichia coli
In short: as §1

P. aeruginosa ATCC 27853 = test: disc diffusion assay; assay type: cell-based; details: 0.15 μmol per 6 mm disc
Protocol: (§2) In the performed disc diffusion assays, indole derivatives (S)-13h, (S)-13i, and (S)-13j caused promising halos of growth inhibition.
(§3) The disc diffusion assays against E. coli TOP10 (Thermo Fisher, Waltham, USA), E. coli ATCC 35218, K. pneumoniae ATCC 700603, and P. aeruginosa ATCC 27853 were performed as follows: the bacteria were grown overnight on a Columbia blood agar plate (Oxoid, Basingstoke, UK), and one colony was suspended in sterile saline to yield a suspension of 0.5 McFarland standard. Using a sterile swab, the suspension was spread evenly onto Mueller–Hinton agar (Oxoid, Basingstoke, UK). 0.15 μmol of each compound (dissolved in 10 μL DMSO) was applied onto circular 6 mm diameter filter paper disks, which were then placed on the agar. After incubating the agar plates for 20 h at 37 °C, the diameter of the zone of growth inhibition was measured for each compound.

E. coli TOP10 = test: disc diffusion assay; assay type: cell-based; details: 0.15 μmol per 6 mm disc
Protocol: as §2, §3

E. coli ATCC 35218 = test: disc diffusion assay; assay type: cell-based; details: 0.15 μmol per 6 mm disc
Protocol: as §2, §3

[5] = test system: K. pneumoniae ATCC 700603; test: disc diffusion assay; assay type: cell-based, Klebsiella pneumoniae; details: 0.15 μmol per 6 mm disc
Protocol: as §2, §3

Row | SMILES | Inhibition zone E. coli D22 (E. coli D22 [1]) | Inhibition zone E. coli BL21(DE3) (E. coli BL21(DE3) [2]) | Ki (E. coli LpxC C63A) | MIC (E. coli D22 [3]) | MIC E. coli BL21(DE3) (E. coli BL21(DE3) [4]) | MIC (E. coli BL21(DE3) [4]) | Inhibition zone P. aeruginosa ATCC 27853 (P. aeruginosa ATCC 27853) | Inhibition zone E. coli TOP 10 (E. coli TOP10) | Inhibition zone E. coli ATCC 35218 (E. coli ATCC 35218) | Inhibition zone K. pneumoniae ATCC 700603 [5]
1 | O=C(NC[C@H](OCc1ccc(C#Cc2ccc(CN3CCOCC3)cc2)cc1)C(=O)NO)c1ccc[nH]1 [(S)-13k] | >30 mm | 23.3 ± 0.6 mm | 97.1 ± 9.4 nM | 0.063 µg/mL (≈ 0.125 µM) | 4.0 µg/mL (≈ 7.96 µM) | 4 to 8 µg/mL (≈ 7.96 to 15.9 µM) | 9.0 ± 1.4 mm | 27.0 ± 2.8 mm | 23.0 ± 1.4 mm | 9.5 ± 0.7 mm
2 | O=C(NC[C@H](OCc1ccc(C#Cc2ccc(CN3CCOCC3)cc2)cc1)C(=O)NO)c1cc[nH]n1 [(S)-13l] | >30 mm | 24.7 ± 0.6 mm | 80.9 ± 9 nM | 0.063 µg/mL (≈ 0.125 µM) | 4.0 µg/mL (≈ 7.94 µM) | 4 to 8 µg/mL (≈ 7.94 to 15.9 µM) | 12.0 ± 0 mm | 30.5 ± 0.7 mm | 25.5 ± 0.7 mm | 11.5 ± 0.7 mm
3 | O=C(NC[C@H](OCc1ccc(C#Cc2ccc(CN3CCOCC3)cc2)cc1)C(=O)NO)c1cc(-c2ccccc2)[nH]n1 [(S)-13m] | 24.5 ± 1.8 mm | 11.3 ± 1.6 mm | 85.2 ± 21.7 nM | 0.063 µg/mL (≈ 0.109 µM) | 8.0 µg/mL (≈ 13.8 µM) | 4 to 8 µg/mL (≈ 6.9 to 13.8 µM) | <6 mm | 14.7 ± 0.6 mm | 13.0 ± 1.7 mm | <6 mm
4 | Cc1noc(C)c1C(=O)NC[C@H](OCc1ccc(C#Cc2ccc(CN3CCOCC3)cc2)cc1)C(=O)NO [(S)-13n] | >30 mm | 20.8 ± 1.1 mm | 127 ± 40 nM | 0.13 µg/mL (≈ 0.244 µM) |  | 16 µg/mL (≈ 30 µM) | <6 mm | 24.0 ± 0 mm | 20.0 ± 1.7 mm | 7.0 ± 1.0 mm
